Results published in patent US6359112B2 (Fraunhofer-Gesellschaft zur Forferung der angewandten …, priority 1997, dated 2002).
Where two headings read alike, the source gives them in different places. No end group written: not given here.

Tests used:
Rat Insulinoma (RIN5 mf) = tested on: Rat Insulinoma (RIN5 mf)
Method: (§1) FIG. 4 is a graph of MTT reduction as a function of concentration of NFGAIL, SEQ ID NO: 3.
(§2) Suspensions of the peptide aggregate (produced as described as above) were tested by means of a Rat Insulinoma (RIN5 mf) and a human astroglioma-cell series (HTB-14) for toxicity. The newly dissolved peptides were also tested for cytotoxicity.

[1] = tested on: human astroglioma-cell series (HTB-14)
Method: as §1, §2

[2] = aggregated form (suspension of peptide aggregate)
[3] = soluble form (newly dissolved peptide)

Substance: NFGAIL [NFGAIL]
- Cytotoxicity (Rat Insulinoma (RIN5 mf); [2]): cyto-toxic
- Cytotoxicity (Rat Insulinoma (RIN5 mf); [3]): no toxicity
- Cytotoxicity [1, 2]: cyto-toxic
- Cytotoxicity [1, 3]: no toxicity
